{
  "source": "patent EP1048669A1",
  "about": "“CARBAPENEM DERIVATIVES” (priority 1997, dated 1999)",
  "key": {"[1]": {"experiment": "In vivo stability test (TLC bioautography of urine)", "parameters": "species or system rhesus monkey", "method": "The compound of Example 1 was used as a representative compound, and the compound of Example 139B of Document A was used as a comparative compound. A test agent (10 mg/kg) was intravenously administered to 4-years old male rhesus monkey (body weight 5.48 kg) over a period of 5 minutes. The urine was collected over a period of 0-1 hour and over a period of 1-2 hours, both after the administration. The urine samples were stored at an ice-cooled temperature. A TLC plate (silica gel 60F-254, manufactured by Merck Co.) which had been activated just before use at 120°C for 30 minutes and spotted with 4 µl of each urine sample, was developed with a solvent in a closed vessel (developing solvent: CH3CN/H2O/CH3COOH/25% NH4OH = 45:30:6:2; pH 5.3). After completion of the development, the TLC plate was taken out of the vessel, and dried. An AM-1 medium (manufactured by Difco Co.) containing a test strain (B. subtilis ATCC 12432) was contacted with the silica gel surface of the TLC plate at ambient temperature for 30 minutes. After stripping off the TLC plate, the medium was cultured at 37°C overnight. Rf value of a clear zone formed by the growth inhibition of test strain was determined. As control, the test compound was dissolved in 10 mmol MOPS buffer (pH 7) at the concentration of 250 µg/ml, and 2 µl of this solution was spotted on a TLC plate."}, "male SD rats": {"test_system": "male SD rats", "experiment": "Toxicity test on the central nervous system (administration to the right ventricle of the brain)", "assay_type": "in vivo", "settings": "observed thirty minutes", "excerpt": "A chronic guide cannula was inserted into the right ventricle of the brain of 7-weeks old male SD rats (n = 5) and immobilized with a dental resin. […] After the administration, behavior of the animal was visually examined in an observing cage for thirty minutes."}, "MRSA BB6294": {"test_system": "MRSA BB6294", "experiment": "In vitro antibacterial activity, agar plate dilution method (MIC), MRSA conditions", "assay_type": "cell-based, methicillin-resistant Staphylococcus aureus", "settings": "Staphylococcus aureus, read-out: Minimum growth inhibitory concentrations (MIC)", "method": "(§1) A Mueller Hinton agar (MH agar) was inoculated with a platinum loop quantity (the quantity of inoculated bacterium: 10^6 CFU/ml) of each test bacterial strain which had been cultured overnight in Mueller Hinton broth. The culture medium contained an antibacterial agent at a varied concentration. After a culture at 37°C for 16 hours, the minimum growth inhibitory concentration (MIC: µg/ml) of the compound of this invention was measured. When MRSA was used as the test strain, a medium containing 2% sodium chloride was used as the test medium in accordance with the above-mentioned agar plate dilution method, and the minimum growth inhibitory concentration (MIC: µg/ml) of the compound of this invention was measured under culture conditions of 35°C, 48 hours."}, "P. aeruginosa IFO-3445": {"test_system": "P. aeruginosa IFO-3445", "experiment": "In vitro antibacterial activity, agar plate dilution method (MIC)", "assay_type": "cell-based", "settings": "Pseudomonas aeruginosa, read-out: Minimum growth inhibitory concentrations (MIC)", "method": "as §1"}, "E. coli NIHJ JC2": {"test_system": "E. coli NIHJ JC2", "experiment": "In vitro antibacterial activity, agar plate dilution method (MIC)", "assay_type": "cell-based", "settings": "Escherichia coli, read-out: Minimum growth inhibitory concentrations (MIC)", "method": "as §1"}, "[2]": {"target": "T1, Metallo-β-lactamase encoded by plasmid pMS350 (Serratia marcescens, UniProt P52699)", "T1 construct": "made in house", "T1 sequence (P52699 19-246)": "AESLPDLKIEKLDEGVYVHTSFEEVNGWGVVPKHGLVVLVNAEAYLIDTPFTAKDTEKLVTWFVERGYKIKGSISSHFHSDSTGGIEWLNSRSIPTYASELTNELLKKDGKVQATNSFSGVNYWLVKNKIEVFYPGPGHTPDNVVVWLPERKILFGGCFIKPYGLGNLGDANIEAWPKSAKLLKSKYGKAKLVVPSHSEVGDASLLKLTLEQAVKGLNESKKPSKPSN", "experiment": "β-Lactamase inhibition test (Nitrocefin substrate)", "assay_type": "biochemical, Pseudomonas aeruginosa GN17203", "settings": "Nitrocefin 37.5 µg/ml, 30°C for 15 minutes, Zn2+ 100 µM, MOPS buffer", "method": "Metallo-β-lactamase encoded by plasmid pMS350 originated from Pseudomonas aeruginosa GN17203 was purified and used for this test. The enzyme previously gave a single protein band on SDS/PAGE (specific activity: 70 U/mg protein). The enzymatic activity (U) was measured by reacting it with 100 µM of imipenem dissolved in 10 mM 3-morpholinopropanesulfonate buffer (pH 7.0) (hereinafter referred to as MOPS buffer) containing 100 µM zinc chloride, and the quantity of enzyme capable of hydrolyzing 1 µM of imipenem per one minute at a reaction temperature of 30°C was defined as 1 U.\nAs the screening substrate of this test, Nitrocefin®, OXOID) was used. In each well of a 96 well plate, 1 µl of a test agent dissolved in 10 mM MOPS buffer and 25 µl of metallo-β-lactamase preparation (enzymatic activity: 3-6 mU/ml) were mixed, and then 75 µl of 50 µg/ml Nitrocefin® was added and mixed to create a final substrate concentration of 37.5 µg/ml. The enzymic reaction was carried out at 30°C for 15 minutes and followed by measuring the quantity of hydrolyzed Nitrocefin™ at a wavelength of 492 nm by means of a microplate reader. In this screening system, the operation was carried out in the presence of Zn^2+ (100 µM) in order to eliminate the inhibitory effect due to chelating action. […]"}, "Pseudomonas aeruginosa": {"test_system": "Pseudomonas aeruginosa", "settings": "especially against Pseudomonas aeruginosa; cited from earlier work"}, "male ICR mice": {"test_system": "male ICR mice", "experiment": "Acute toxicity test (single intravenous administration)", "assay_type": "in vivo", "settings": "observed over five days", "method": "The compound of Example 24 was used as a representative compound. According to \"Explanation Book for GLP Standard and Toxicity Test Guideline\" (supervised by Department of Examination, Bureau of Pharmacy, Ministry of Health and Welfare; published by Yakuji Shimpou-sha), a test compound was diluted with distilled water for injection use until the agent concentration reached 60.75 mg/ml and once administered intravenously to the tail vein of 6-weeks old male ICR mice at an administration rate of 1 ml/min. After the administration, the state of death and the general motility were observed over five days."}, "[3]": {"settings": "400 µg/rat into right ventricle of the brain"}, "[4]": {"settings": "200 µg/rat into right ventricle of the brain"}, "[5]": {"settings": "mouse, 500 mg/kg intravenously once"}, "[6]": {"settings": "mouse, 1,000 mg/kg intravenously once"}, "[7]": {"settings": "mouse, 1,500 mg/kg intravenously once"}},
  "note": "Structures can show the parent of a compound that is named as a salt. Where two headings read alike, the source gives them in different places.",
  "data": [
    {"smiles": "CNCc1ccc([C@H]2C[C@H](SC3=C(C(=O)O)N4C(=O)[C@H]([C@@H](C)O)[C@H]4[C@H]3C)CN2)cc1.Cl", "note": "[Example 1, (1R,5S,6S)-2-[(3S,5R)-5-[4-N-methylaminomethylphenyl]-pyrrolidin-3-ylthio]-6-[(R)-1-hydroxyethyl]-1-methyl-1-carbapen-2-em-3-carboxylic acid hydrochloride]", "values": [
      {"measurement": "Rf value, Control", "setting": "[1]; control: test compound in 10 mmol MOPS buffer (pH 7), 250 µg/ml, spotted on TLC plate, clear zone with B. subtilis ATCC 12432", "result": 0.40},
      {"measurement": "Rf value, Accumulated urine during 0-1 hr after administration", "setting": "[1]; rhesus monkey, 10 mg/kg intravenously, urine 0-1 hr, TLC clear zone with B. subtilis ATCC 12432", "result": 0.40},
      {"measurement": "Rf value, Accumulated urine during 1-2 hrs after administration", "setting": "[1]; rhesus monkey, 10 mg/kg intravenously, urine 1-2 hrs, TLC clear zone with B. subtilis ATCC 12432", "result": 0.40},
      {"measurement": "Number of convulsed cases", "setting": "male SD rats; [3]", "result": "0/5"},
      {"measurement": "Number of dead cases", "setting": "male SD rats; [3]", "result": "0/5"}
    ]},
    {"smiles": "C[C@@H](N)c1ccc([C@H]2C[C@H](SC3=C(C(=O)O)N4C(=O)[C@H]([C@@H](C)O)[C@H]4[C@H]3C)CN2)cc1", "note": "[Example 15, (1R,5S,6S)-2-[(3S,5R)-5-[4-[(1R)-aminoethyl]phenyl]-pyrrolidin-3-ylthio]-6-[(R)-1-hydroxyethyl]-1-methyl-1-carbapen-2-em-3-carboxylic acid hydrochloride]", "values": [
      {"measurement": "Number of convulsed cases", "setting": "male SD rats; [4]", "result": "0/5"},
      {"measurement": "Number of dead cases", "setting": "male SD rats; [4]", "result": "0/5"},
      {"measurement": "MIC", "setting": "MRSA BB6294; MRSA, 48 h", "result": 3.13, "unit": "µg/mL"},
      {"measurement": "MIC", "setting": "P. aeruginosa IFO-3445; IFO3445, 16 h", "result": 0.2, "unit": "µg/mL"},
      {"measurement": "MIC", "setting": "E. coli NIHJ JC2; NIHJJC2, 16 h", "result": 0.025, "unit": "µg/mL"}
    ]},
    {"smiles": "C=CCOC(=O)N(C)Cc1ccc([C@H]2C[C@H](SC(C)=O)CN2C(=O)OCC=C)cc1", "note": "[Compound of Referential. Ex. 1, (2R,4S)-4-Acetylthio-1-allyloxycarbonyl-2-(4-N-allyloxycarbonyl-N-methylaminomethyl)phenylpyrrolidine]", "values": [
      {"measurement": "IC50", "setting": "[2]", "result": "< 100", "unit": "nM"}
    ]},
    {"smiles": "C[C@H](N)c1ccc([C@H]2C[C@H](SC3=C(C(=O)O)N4C(=O)[C@H]([C@@H](C)O)[C@H]4[C@H]3C)CN2)cc1", "note": "[Example 14, (1R,5S,6S)-2-[(3S,5R)-5-[4-[(1S)-aminoethyl]phenyl]-pyrrolidin-3-ylthio]-6-[(R)-1-hydroxyethyl]-1-methyl-1-carbapen-2-em-3-carboxylic acid hydrochloride]", "values": [
      {"measurement": "Number of convulsed cases", "setting": "male SD rats; [4]", "result": "0/5"},
      {"measurement": "Number of dead cases", "setting": "male SD rats; [4]", "result": "0/5"},
      {"measurement": "MIC", "setting": "MRSA BB6294; MRSA, 48 h", "result": 3.13, "unit": "µg/mL"},
      {"measurement": "MIC", "setting": "P. aeruginosa IFO-3445; IFO3445, 16 h", "result": 0.1, "unit": "µg/mL"},
      {"measurement": "MIC", "setting": "E. coli NIHJ JC2; NIHJJC2, 16 h", "result": 0.025, "unit": "µg/mL"}
    ]},
    {"smiles": "C[C@@H](O)[C@H]1C(=O)N2C(C(=O)O)=C(SCCNC=N)C[C@H]12.O", "note": "[Imipenem, (5R,6S)-3-[2-(formimidoylamino)-ethylthio]-6-[(R)-1-hydroxyethyl]-7-oxo-1-azabicyclo[3.2.0]hepta-2-ene-2-carboxylic acid monohydrate]", "values": [
      {"measurement": "enhanced antibacterial activity compared to the parent antibiotic, thienamycin", "setting": "Pseudomonas aeruginosa", "result": "2-4 times"}
    ]},
    {"smiles": "C[C@@H](O)[C@H]1C(=O)N2C(C(=O)O)=C(S[C@@H]3CN[C@@H](c4csc(CN)c4)C3)[C@H](C)[C@H]12.Cl", "note": "[Example 32, (1R,5S,6S)-2-[(3S,5R)-5-(2-aminomethyl-4-thienyl)-pyrrolidin-3-ylthio]-6-[(R)-1-hydroxyethyl]-1-methyl-1-carbapen-2-em-3-carboxylic acid hydrochloride]", "values": [
      {"measurement": "MIC", "setting": "MRSA BB6294; MRSA BB6294, medium containing 2% sodium chloride, 35°C, 48 hours", "result": 3.13, "unit": "µg/mL"},
      {"measurement": "MIC", "setting": "P. aeruginosa IFO-3445; IFO3445, P. aeruginosa IFO-3445, MH agar, 10^6 CFU/ml, 37°C for 16 hours", "result": 0.39, "unit": "µg/mL"},
      {"measurement": "MIC", "setting": "E. coli NIHJ JC2; NIHJJC2, E. coli NIHJ JC2, MH agar, 10^6 CFU/ml, 37°C for 16 hours", "result": 0.025, "unit": "µg/mL"}
    ]},
    {"smiles": "C[C@@H](O)[C@H]1C(=O)N2C(C(=O)O)=C(S[C@@H]3CN[C@@H](c4ccc(C(N)CC(N)=O)cc4)C3)[C@H](C)[C@H]12.Cl", "note": "(stereo partly drawn) [Example 24, (1R,5S,6S)-2-[(3S,5R)-5-[4-(1-amino-2-carbamoylethyl)-phenyl]pyrrolidin-3-ylthio]-6-[(R)-1-hydroxyethyl]-1-methyl-1-carbapen-2-em-3-carboxylic acid hydrochloride]", "values": [
      {"measurement": "Motility and general symptoms", "setting": "male ICR mice; [5]", "result": "No abnormality"},
      {"measurement": "Number of alive animals", "setting": "male ICR mice; [5]", "result": "2/2"},
      {"measurement": "Motility and general symptoms", "setting": "male ICR mice; [6]", "result": "No abnormality"},
      {"measurement": "Number of alive animals", "setting": "male ICR mice; [6]", "result": "5/5"},
      {"measurement": "Motility and general symptoms", "setting": "male ICR mice; [7]", "result": "No abnormality"},
      {"measurement": "Number of alive animals", "setting": "male ICR mice; [7]", "result": "5/5"}
    ]}
  ]
}
